Test systems include 786-0 renal; HCT-116 colon; HOP-92 NSCLC; NCI-H460 lung; OVCAR-3 ovarian; SK-OV-3 ovarian; SR leukemia; T-47D breast; TK-10 renal; U251 CNS.
Assay in all cases: growth of human tumour cells (NCI), 48 h

The structures appear in SMILES notation.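 Growth conditions: 96-well plates. Treatment: test compound, 48 hours, 5 concentrations. Analysis: linear interpolation between bracketing concentrations; unreached endpoints set to highest concentration. Abbreviation: GI50, concentration required for 50% inhibition of growth. TGI marks complete inhibition of growth.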

Consider `CCOC(=O)/C(=C\c1ccc2ccccc2c1)P(=O)(OCC)OCC`, for which the GI50 in the assay with 786-0 renal is 2.26 µM; with HCT-116 colon it was 2.22 µM; in the assay on HOP-92 NSCLC, 2.44 µM; in the assay with NCI-H460 lung it was 2.71 µM; in the assay on OVCAR-3 ovarian, 1.95 µM; in the assay on SK-OV-3 ovarian it was 8.84 µM. Also, the GI50 is 1.69 µM in the assay on SR leukemia, 2.55 µM in the assay on T-47D breast, 2.85 µM in the assay with TK-10 renal and 2.64 µM in the assay with U251 CNS. Further, the TGI with 786-0 renal came out at 5.61 µM; in the assay on HCT-116 colon it was 5.08 µM; in the assay on HOP-92 NSCLC, 5.31 µM; in the assay on NCI-H460 lung, 9.2 µM; in the assay on OVCAR-3 ovarian, 4.07 µM; in the assay with SK-OV-3 ovarian, 20.9 µM. Besides, the TGI in the assay on SR leukemia stood at 8.19 µM; with T-47D breast it was 9.09 µM; in the assay on TK-10 renal, 8.97 µM; in the assay with U251 CNS it was 7.86 µM.
Turning to `COCC(C(=O)OC1C/C=C/C=C/C(=O)OC(C(C)C(O)C(C)CCC(OC(=O)C(C)N(C)C)C(C)C(OC(C)=O)C(C)/C=C/N(C)C=O)C/C=C/C(OC)CC(C)C/C=C(\C)C(OC)CCC(C)C(O)C1C)N(C)C` (centres undefined), the GI50 in the assay with 786-0 renal is < 0.0001 µM; in the assay with HCT-116 colon, < 0.0001 µM; in the assay on HOP-92 NSCLC, 0.00145 µM; in the assay with NCI-H460 lung it was < 0.0001 µM; in the assay on OVCAR-3 ovarian it was < 0.0001 µM; in the assay on SK-OV-3 ovarian, < 0.0001 µM. Further, the GI50 in the assay with SR leukemia is < 0.0001 µM; in the assay with T-47D breast, 0.0479 µM; with TK-10 renal, 0.0158 µM; in the assay with U251 CNS, < 0.0001 µM. Also, the TGI in the assay on 786-0 renal came to 0.000845 µM; with HCT-116 colon, 0.00687 µM; with HOP-92 NSCLC, 0.024 µM; in the assay on NCI-H460 lung, 0.00436 µM; with OVCAR-3 ovarian, 0.00191 µM; with SK-OV-3 ovarian, 0.0164 µM. Moreover, the TGI in the assay on SR leukemia was 0.00341 µM; with T-47D breast, > 1 µM; with TK-10 renal, 0.0877 µM; in the assay with U251 CNS it was 0.154 µM.
With `COc1cccc(-c2nc3sccn3c2-c2ccnc(NCCCNS(=O)(=O)c3ccccc3)c2)c1`, the GI50 in the assay on 786-0 renal was 6.03 µM; in the assay on HCT-116 colon, 3.32 µM; in the assay on HOP-92 NSCLC, 0.885 µM; in the assay with NCI-H460 lung, 3.35 µM; with OVCAR-3 ovarian, 3.3 µM; with SK-OV-3 ovarian, 5.43 µM. The GI50 in the assay on SR leukemia was 3.57 µM; with T-47D breast it was 1.73 µM; in the assay with TK-10 renal it was 4.27 µM; with U251 CNS, 4.55 µM. Also, the TGI in the assay with 786-0 renal, with HCT-116 colon, with HOP-92 NSCLC, with NCI-H460 lung, with OVCAR-3 ovarian and with SK-OV-3 ovarian was > 100 µM each time. Further, the TGI was 92.6 µM in the assay with SR leukemia, 6.24 µM in the assay with T-47D breast, > 100 µM with TK-10 renal and > 100 µM with U251 CNS.
For the molecule `O=c1[nH]cnc2n[nH]nc12`, the TGI is > 100 µM with 786-0 renal; 28.3 µM with HCT-116 colon; > 100 µM with HOP-92 NSCLC; > 69.7 µM in the assay with NCI-H460 lung; 63.8 µM with OVCAR-3 ovarian; > 25.2 µM in the assay on SK-OV-3 ovarian. The TGI in the assay on SR leukemia is > 52.7 µM; with T-47D breast it was > 100 µM; in the assay with TK-10 renal it was > 100 µM; in the assay on U251 CNS it was > 100 µM. Further, the GI50 in the assay on T-47D breast is 3.49 µM.
For the molecule `COc1ccc(-c2c(N)noc2-c2cc(OC)c3c(c2)OCCO3)cc1`, the GI50 was < 0.012 µM with 786-0 renal; < 0.01 µM in the assay on HCT-116 colon; 0.12 µM in the assay with HOP-92 NSCLC; < 0.01 µM in the assay on NCI-H460 lung; < 0.01 µM in the assay with OVCAR-3 ovarian; < 0.0121 µM in the assay on SK-OV-3 ovarian. The GI50 was < 0.01 µM in the assay on SR leukemia, 0.64 µM in the assay with T-47D breast, 0.562 µM in the assay with TK-10 renal and < 0.0119 µM with U251 CNS. Also, the TGI is 6.37 µM in the assay with HCT-116 colon; > 40 µM in the assay on HOP-92 NSCLC; 11.9 µM in the assay on NCI-H460 lung; < 0.0126 µM with OVCAR-3 ovarian; 1.01 µM in the assay with SK-OV-3 ovarian; > 52.4 µM with SR leukemia. In addition, the TGI in the assay on T-47D breast was 41.2 µM; with TK-10 renal, > 56.6 µM.
As to `COc1cc2c3c(n(CCCNCCCNCCCN)c(=O)c2cc1OC)-c1cc2c(cc1C3=O)OCO2`, the GI50 in the assay with 786-0 renal was 69.5 µM; with HCT-116 colon, 43 µM; in the assay on HOP-92 NSCLC, > 100 µM; in the assay with NCI-H460 lung it was > 100 µM; in the assay with OVCAR-3 ovarian, 0.879 µM; in the assay with SK-OV-3 ovarian, > 100 µM. Also, the GI50 with SR leukemia is 13.6 µM; with T-47D breast it was > 100 µM; in the assay on TK-10 renal it was > 100 µM; with U251 CNS, 46.2 µM. Also, the TGI was > 100 µM in the assay on 786-0 renal; > 100 µM with HCT-116 colon; > 100 µM in the assay with HOP-92 NSCLC; > 100 µM in the assay on NCI-H460 lung; 52.6 µM with OVCAR-3 ovarian; > 100 µM with SK-OV-3 ovarian. In addition, the TGI in the assay with SR leukemia was 89 µM; with T-47D breast, > 100 µM; in the assay with TK-10 renal it was > 100 µM; in the assay with U251 CNS, > 100 µM.
In the case of `COc1ccc(C(O)c2cc3c(N)c(C(=O)Nc4cccc(Br)c4C)sc3nc2C)cc1` (centres undefined), the GI50 is 0.254 µM in the assay on 786-0 renal; 0.141 µM in the assay on HCT-116 colon; 0.261 µM in the assay on HOP-92 NSCLC; 0.121 µM with NCI-H460 lung; 0.103 µM in the assay with OVCAR-3 ovarian; 0.251 µM in the assay with SK-OV-3 ovarian. Besides, the GI50 with SR leukemia was 0.125 µM; in the assay with T-47D breast it was 0.346 µM; in the assay on TK-10 renal, 4.21 µM; with U251 CNS it was 0.164 µM. In addition, the TGI is > 33.3 µM with 786-0 renal; 7.46 µM in the assay on HCT-116 colon; 18 µM in the assay with HOP-92 NSCLC; 1.65 µM with NCI-H460 lung; 1.08 µM with OVCAR-3 ovarian; > 33.3 µM in the assay with SK-OV-3 ovarian. In addition, the TGI in the assay with SR leukemia was > 33.3 µM; with T-47D breast it was > 33.3 µM; in the assay with TK-10 renal it was > 24.4 µM; in the assay on U251 CNS it was 8.61 µM.
As for `COc1cc(-c2nn(-c3cccc(NC(=O)CCNc4ccc(N5CCOCC5)cc4)c3)cc2-c2ccncc2)ccc1Cl`, the GI50 was 2.87 µM in the assay on 786-0 renal; 2.31 µM in the assay on HCT-116 colon; 2.37 µM in the assay on HOP-92 NSCLC; 2.95 µM in the assay with NCI-H460 lung; 2.45 µM in the assay with OVCAR-3 ovarian; 5.02 µM in the assay with SK-OV-3 ovarian. In addition, the GI50 with SR leukemia was 2.13 µM; in the assay with T-47D breast, 1.99 µM; in the assay with TK-10 renal it was 3.13 µM; in the assay on U251 CNS, 2.52 µM. Further, the TGI is 34.7 µM in the assay on 786-0 renal; > 100 µM with HCT-116 colon; 8.01 µM in the assay on HOP-92 NSCLC; 30 µM in the assay with NCI-H460 lung; 8.55 µM in the assay with OVCAR-3 ovarian; > 100 µM in the assay with SK-OV-3 ovarian. In addition, the TGI in the assay on SR leukemia turned out to be 9.09 µM; in the assay on T-47D breast, 7.91 µM; in the assay with TK-10 renal it was 47.9 µM; in the assay with U251 CNS it was 63 µM.
